Results from patent US20100120690A1, “Polypeptides Having Antimicrobial Activity and Polynucleotides Encoding Same” (Novozymes Adenium Biotech A/S, priority 2005, published 2010).

How the values were obtained:
Format in all cases: cell-based
[1] = test system: Staphylococcus carnosus ATCC51365; assay: Yeast screening assay: radial diffusion assay of yeast supernatants; design: key: An activity of 3 is better than Plectasin; An activity of 2 corresponds to the activity of Plectasin; 1 is worse than Plectasin; settings: yeast supernatant, clearing zone in radial diffusion assay
How it was run: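 Supernatants from S. cerevisiae expressing plectasin variants, grown 3 days at 30 °C in galactose medium, were applied to agarose containing 5×10^5 cfu/mL S. carnosus. Plates were incubated 3 h at 37 °C, overlaid, left overnight and MTT-stained. Clearing zones were scored as 2 = plectasin-like, 3 = better, 1 = worse.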

[2] = test system: panel of 6 different strains of Staphylococcus aureus; assay: Average MIC, NCCLS/CLSI guidelines using caMHB (Example 6); settings: average over 6 S. aureus strains, duplicate; MIC above 32 counted as 64; read after 18-24 hours at 37° C.
Method: A large number of antimicrobial peptides of the invention were tested against a panel of 6 different strains of Staphylococcus aureus listed below:
Staphylococcus aureus, ATCC29213, MSSA, NCCLS reference strain; Staphylococcus aureus, ATCC25923, MSSA, NCCLS reference strain; Staphylococcus aureus, ATCC29737, MSSA; Staphylococcus aureus, E33235, MSSA; Staphylococcus aureus, 698-01, MRSA ST5, Str, Kan, Oxa; Staphylococcus aureus, 566-03, MRSA ST80, Oxa, Tet, Fus, Kan.
The staphylococci were exposed to the following peptide concentrations: 32; 16; 8; 4; 2; 1; 0.5; 0.25; 0.13; […]; and 0.03 microgram/mL. All peptides were purified, HPLC quantified and the concentrated peptides (>160 micrograms/mL) were diluted to 160 micrograms/mL in peptide dilution buffer (0.1% BSA, 0.01% Acetic Acid).
The MIC determination was done essentially as described by NCCLS/CLSI guidelines using caMHB. The MICs were read after 18-24 hours of 37° C. incubations and recorded along with the CFU in the table below.
A total number of 95 antimicrobial peptides of the invention were evaluated in duplicate against the 6 bacterial strains described above.
In the majority of the double determinations (93%), the MIC varied <2 fold. An average MIC is tabulated below. If the MIC was above 32 micrograms/mL, a value of 64 was used to calculate the average.

[3] = test system: Staphylococcus aureus, ATCC 29213; assay: MIC, NCCLS/CLSI guidelines (Example 5), strain A; settings: relative to wildtype Plectasin; average of two independent experiments
Method: (§1) Plectasin wild-type (SEQ ID NO: 1) and several variants of Plectasin were expressed and purified. The Minimal Inhibitory Concentration (MIC) was determined to test for their antimicrobial activity following the NCCLS guidelines from CLSI (Clinical and Laboratory Standards Institute; formerly known as National Committee for Clinical and Laboratory Standards).
(§2) The peptides were tested against the following strains: • A: Staphylococcus aureus, ATCC 29213; • B: Staphylococcus aureus, ATCC 25923; • C: Staphylococcus aureus, ATCC 29737; • D: Staphylococcus aureus, MRSA ST5 (2001), multi-resistant clinical human isolate from Statens Serum Institut, Denmark; • E: Staphylococcus aureus, MRSA ST80 (2003), multi-resistant clinical human isolate from Statens Serum Institut, Denmark.
(§3) All MIC values represent an average of two independent experiments; and all results in Table 5 are expressed relative to wildtype Plectasin:
(§4) 0: >100% of Plectasin wildtype MIC; 1: 80-100% of Plectasin wildtype MIC; 2: 50-80% of Plectasin wildtype MIC; 3: <50% of Plectasin wildtype MIC.

[4] = test system: Staphylococcus aureus, MRSA ST80 (2003); assay: MIC, NCCLS/CLSI guidelines (Example 5), strain E; settings: relative to wildtype Plectasin; average of two independent experiments
Method: as §1, §2, §3, §4

[5] = test system: Staphylococcus aureus, ATCC 29737; assay: MIC, NCCLS/CLSI guidelines (Example 5), strain C; settings: relative to wildtype Plectasin; average of two independent experiments
Method: as §1, §2, §3, §4

[6] = test system: Staphylococcus aureus, MRSA ST5 (2001); assay: MIC, NCCLS/CLSI guidelines (Example 5), strain D; settings: relative to wildtype Plectasin; average of two independent experiments
Method: as §1, §2, §3, §4

Substance: GFGCNGPWDEDDMQCHNHCKSIKGYKGGYCAKGGFLCKCY [Mutation V36L]
- Activity (antimicrobial activity relative to the activity of plectasin) [1]: 3
- Average MIC [2]: 26 micrograms/mL

Substance: GFGCNGPWDEDDTQCHNHCKSIKGYKGGYCAKGGFVCKCY [Mutation M13T]
- Activity (antimicrobial activity relative to the activity of plectasin) [1]: 2
- Average MIC [2]: 26 micrograms/mL

Substance: D9S + Q14L: variant of Plectasin (SEQ ID NO: 1) (GFGCNGPWSEDDMLCHNHCKSIKGYKGGYCAKGGFVCKCY)
- Relative MIC, strain A [3]: 3 (<50% of Plectasin wildtype MIC)
- Relative MIC, strain E [4]: 3 (<50% of Plectasin wildtype MIC)
- Relative MIC, strain C [5]: 3 (<50% of Plectasin wildtype MIC)
- Average MIC [2]: 3 micrograms/mL
- Relative MIC, strain D [6]: 3 (<50% of Plectasin wildtype MIC)

Substance: GFGCNGPWDEGDMQCHNHCKSVKGYKGGYCAKGGFVCKCY [D11G + I22V]
- Activity (antimicrobial activity relative to the activity of plectasin) [1]: 3
- Average MIC [2]: 17 micrograms/mL

Substance: GFGCAGPWDEDDMQCHNHCKSIKGYKGGYCAKGGFVCKCY [Mutation N5A]
- Activity (antimicrobial activity relative to the activity of plectasin) [1]: 3
- Average MIC [2]: 29 micrograms/mL

Substance: GFGCGGPWDEDDMQCHNHCKSIKGYKGGYCAKGGFVCKCY [Mutation N5G]
- Activity (antimicrobial activity relative to the activity of plectasin) [1]: 3
- Average MIC [2]: 24 micrograms/mL

Substance: N5S + M13V + N17A: antimicrobial peptide of the invention, Plectasin variant (GFGCSGPWDEDDVQCHAHCKSIKGYKGGYCAKGGFVCKCY)
- Average MIC [2]: 18 micrograms/mL

Substance: GFGCNGPWDEDDRQCHNHCKSIKGYKGGYCAKGGFVCKCY [Mutation M13R]
- Activity (antimicrobial activity relative to the activity of plectasin) [1]: 3
- Average MIC [2]: 9 micrograms/mL

Substance: N17A: antimicrobial peptide of the invention, Plectasin variant (GFGCNGPWDEDDMQCHAHCKSIKGYKGGYCAKGGFVCKCY) [Mutation N17A]
- Average MIC [2]: 15 micrograms/mL

Substance: N5G + M13W + N17S: antimicrobial peptide of the invention, Plectasin variant (GFGCGGPWDEDDWQCHSHCKSIKGYKGGYCAKGGFVCKCY)
- Average MIC [2]: 10 micrograms/mL

Substance: M13A + Q14K + K26R: antimicrobial peptide of the invention, Plectasin variant (GFGCNGPWDEDDAKCHNHCKSIKGYRGGYCAKGGFVCKCY)
- Average MIC [2]: 9 micrograms/mL

Substance: GFGCNGPWDEDDSQCHNHCKSIKGYKGGYCAKGGFVCKCY [Mutation M13S]
- Activity (antimicrobial activity relative to the activity of plectasin) [1]: 3
- Average MIC [2]: 24 micrograms/mL

Substance: K26C + Y40YRCG: antimicrobial peptide of the invention, Plectasin variant (GFGCNGPWDEDDMQCHNHCKSIKGYCGGYCAKGGFVCKCYRCG)
- Average MIC [2]: 11 micrograms/mL

Substance: N5G + D9A + Q14S + K23T + A31T: antimicrobial peptide of the invention, Plectasin variant (GFGCGGPWAEDDMSCHNHCKSITGYKGGYCTKGGFVCKCY)
- Average MIC [2]: 14 micrograms/mL

Substance: M13R + Q14K + K26R: antimicrobial peptide of the invention, Plectasin variant (GFGCNGPWDEDDRKCHNHCKSIKGYRGGYCAKGGFVCKCY)
- Average MIC [2]: 5 micrograms/mL

Substance: N5G + M13W: antimicrobial peptide of the invention, Plectasin variant (GFGCGGPWDEDDWQCHNHCKSIKGYKGGYCAKGGFVCKCY)
- Average MIC [2]: 9 micrograms/mL

Substance: N17T: antimicrobial peptide of the invention, Plectasin variant (GFGCNGPWDEDDMQCHTHCKSIKGYKGGYCAKGGFVCKCY) [Mutation N17T]
- Average MIC [2]: 21 micrograms/mL

Substance: GFGCNGPWDEDDMQCHSHCKSIRGYKGGYCAKGGFVCKCY [N17S + K23R]
- Activity (antimicrobial activity relative to the activity of plectasin) [1]: 2
- Average MIC [2]: 14 micrograms/mL

Substance: N5S + M13V + N17T: antimicrobial peptide of the invention, Plectasin variant (GFGCSGPWDEDDVQCHTHCKSIKGYKGGYCAKGGFVCKCY)
- Average MIC [2]: 16 micrograms/mL

Substance: GFGCNGPWKEDDMQCHNHCKSIKGYKGGYCAKGGFVCKCY [Mutation D9K]
- Activity (antimicrobial activity relative to the activity of plectasin) [1]: 3
- Average MIC [2]: 7 micrograms/mL

Substance: GFGCNGPWDEDDMQCHNHCKSIKGYKGGYCNKGGFVCKCY [Mutation A31N]
- Activity (antimicrobial activity relative to the activity of plectasin) [1]: 3
- Average MIC [2]: 9 micrograms/mL

Substance: N17K: antimicrobial peptide of the invention, Plectasin variant (GFGCNGPWDEDDMQCHKHCKSIKGYKGGYCAKGGFVCKCY) [Mutation N17K]
- Average MIC [2]: 11 micrograms/mL

Substance: S21A: antimicrobial peptide of the invention, Plectasin variant (GFGCNGPWDEDDMQCHNHCKAIKGYKGGYCAKGGFVCKCY) [Mutation S21A]
- Average MIC [2]: 17 micrograms/mL

Substance: S21V: antimicrobial peptide of the invention, Plectasin variant (GFGCNGPWDEDDMQCHNHCKVIKGYKGGYCAKGGFVCKCY) [Mutation S21V]
- Average MIC [2]: 26 micrograms/mL

Substance: GFGCNGPWGEDDMQCHNHCKSIKGYKGGYCAKGGFVCKCY [Mutation D9G]
- Activity (antimicrobial activity relative to the activity of plectasin) [1]: 3
- Average MIC [2]: 21 micrograms/mL

Substance: GFGCNGPWVEDDMQCHNHCKSIKGYKGGYCAKGGFVCKCY [Mutation D9V]
- Activity (antimicrobial activity relative to the activity of plectasin) [1]: 3
- Average MIC [2]: 30 micrograms/mL

Substance: N5K + M13L: antimicrobial peptide of the invention, Plectasin variant (GFGCKGPWDEDDLQCHNHCKSIKGYKGGYCAKGGFVCKCY)
- Average MIC [2]: 9 micrograms/mL

Substance: GFGCNGPWDEDDMSCHNHCKSIKGYKGGYCAKGGFVCKCY [Mutation Q14S]
- Activity (antimicrobial activity relative to the activity of plectasin) [1]: 3
- Average MIC [2]: 21 micrograms/mL

Substance: GFGCSGPWDEDDMQCHNHCKSIKGYKGGYCAKGGFVCKCY [Mutation N5S]
- Activity (antimicrobial activity relative to the activity of plectasin) [1]: 3
- Average MIC [2]: 24 micrograms/mL

Substance: N17F: antimicrobial peptide of the invention, Plectasin variant (GFGCNGPWDEDDMQCHFHCKSIKGYKGGYCAKGGFVCKCY) [Mutation N17F]
- Average MIC [2]: 12 micrograms/mL

Substance: M13L + Q14K + K26R: variant of Plectasin (SEQ ID NO: 1) (GFGCNGPWDEDDLKCHNHCKSIKGYRGGYCAKGGFVCKCY)
- Relative MIC, strain A [3]: 3 (<50% of Plectasin wildtype MIC)
- Relative MIC, strain C [5]: 3 (<50% of Plectasin wildtype MIC)
- Average MIC [2]: 9 micrograms/mL
- Relative MIC, strain D [6]: 3 (<50% of Plectasin wildtype MIC)

Substance: GFGCNGPWDEDDMGCHNHCKSIKGYKGGYCAKGGFVCKCY [Mutation Q14G]
- Activity (antimicrobial activity relative to the activity of plectasin) [1]: 3
- Average MIC [2]: 18 micrograms/mL

Substance: N5H + M13E + N17E: antimicrobial peptide of the invention, Plectasin variant (GFGCHGPWDEDDEQCHEHCKSIKGYKGGYCAKGGFVCKCY)
- Average MIC [2]: 12 micrograms/mL

Substance: N5D + D9S + Q14R: antimicrobial peptide of the invention, Plectasin variant (GFGCDGPWSEDDMRCHNHCKSIKGYKGGYCAKGGFVCKCY)
- Average MIC [2]: 16 micrograms/mL

Substance: GFGCNGPWDEDDMVCHNHCKSIKGYRGGYCAKGGFVCKCY [Q14V + K26R]
- Activity (antimicrobial activity relative to the activity of plectasin) [1]: 3
- Average MIC [2]: 12 micrograms/mL

Substance: M13S + Q14K + K26R: antimicrobial peptide of the invention, Plectasin variant (GFGCNGPWDEDDSKCHNHCKSIKGYRGGYCAKGGFVCKCY; Synthetic antimicrobial polypeptide)
- Average MIC [2]: 15 micrograms/mL
